The source of these data is patent publication US9399631B2, “Polyphenol proteasome inhibitors, synthesis, and methods of use” (UNIVERSITY OF SOUTH FLORIDA, priority 2003, dated 2016).

One experiment has as its system LNCaP cells. Kind of experiment: Cell-free caspase-3 activity assay, LNCaP cells. Type of experiment: cell-based, human. The following applies: 10 μM, normalized to 0 hours. Here is the method:
(§1) To examine whether (+)-EGCG could induce apoptosis only in LNCaP, but not DU-145, cells, both cell lines were treated with 10 μM (+)-EGCG for 0, 24, 48 or 72 hours, followed by performance of cell-free caspase-3 activity assay. Cells were harvested at each sequential time-point and activity was determined by incubating whole cell extracts with caspase-3 substrate and measuring free AMCs (FIG. 20C). All the time-points were normalized to 0 hours. (+)-EGCG activated caspase-3 in LNCaP cells in a time-dependent manner: by 2.5-, 3.5- and 6-fold at 24, 48 and 72 hours, respectively (FIG. 20C). In contrast, little caspase-3 activity was detected in (+)-EGCG-treated in DU145 cells: only ˜2-fold induction at 72 hours (FIG. 20C). In the same experiment, (−)-EGCG at 10 μM was used as a control. […] Therefore, the abilities of (+)-EGCG to activate apoptotic program in these prostate cancer cell lines are correlated well to their abilities to accumulate Bax protein levels to a critical high threshold (compare FIGS. 20C and 20D vs. 20B). Values are means of triplicate independent experiments and error bars denote standard deviations.

For the next experiment, the system named is DU145 cells. The experiment can be described thus: Cell-free caspase-3 activity assay, DU145 cells. Type of experiment: cell-based, human. The following applies: 10 μM, 72 hours, normalized to 0 hours. The procedure:
as §1

Experiment [1] relates to prokaryotic 20S proteasome. Kind of experiment: Dialysis assay for irreversible inhibition, prokaryotic 20S proteasome. Type of experiment: biochemical, Methanosarcina thermophile. Here is the method: Materials. Highly purified tea polyphenols (−)-EGCG (>95%), (−)-GCG (>98%), (−)-ECG (>98%), (−)-CG (>98%), fetal calf serum, propidium iodide, 3-[4,5-dimethylthiazol-2-yl]-2,5-diphenyltetrazolium bromide (MTT), RNase A, and DMSO were purchased from Sigma (St. Louis, Mo.). (+)-EGCG, benzyl-protected-(+)-EGCG, (+)-GCG, (−)-EGCG-amide, and (+)-EGCG-amide were prepared by enantioselective synthesis (see below). Purified 20S eukaryotic proteasome from rabbit was purchased from BOSTON BIOCHEM (Cambridge, Mass.). Purified 20S prokaryotic proteasome (Methanosarcina thermophile, Recombinant, E. coli) was purchased from CALBIOCHEM (La Jolla, Calif.). Fluorogenic peptide substrates Suc-Leu-Leu-Val-Tyr-AMC (for the proteasomal chymotrypsin-like activity) was obtained from Calbiochem (La Jolla, Calif.). RPMI 1640 medium, Dulbecco's modified Eagle's medium, MEM non-essential amino acids solution, MEM-sodium pyruvate solution, penicillin, and streptomycin were from INVITROGEN (Carlsbad, Calif.). Monoclonal antibody to p27^Kip was purchased from PHARMINGEN (San Diego, Calif.); polyclonal antibodies to IκB-α, Bax and actin, and monoclonal antibody to ubiquitin were from SANTA CRUZ Biotechnology Inc. (Santa Cruz, Calif.).
Assays for irreversible inhibition. To measure the effect of dialysis on (−)-EGCG-mediated proteasome inhibition, 20S prokaryotic proteasome (2 μg) was incubated with 10 μM (−)-EGCG or the control solvent (H2O) in 50 mM Tris-HCl, pH 7.5 for 1 hour. This was then incubated at 4° C. either without or with dialysis overnight using a 10,000 MWCO Pierce Slide-A-Lyzer Dialysis Cassette (Rockford, Ill.) in a rotating bath of 50 mM Tris-HCl, pH 7.5. The proteasomal chymotrypsin-like activity was then assayed as previously described. As a control, an EGCG solution (without purified 20S proteasome) was dialyzed overnight, followed by measurement of the effects on inhibition of the proteasome activity.
To investigate the nature of (−)-EGCG-mediated proteasome inhibition, a dialysis experiment was performed. […]

In the next experiment the test system is WI-38 cells. The experiment can be described thus: Western blot of p27 in normal WI-38 fibroblasts. The following applies: 25 μM, 36 hours. Type of experiment: cell-based, human. The procedure:
Cell Culture, Cell Extract Preparation, and Western Blot Assay. Human leukemia Jurkat T and prostate cancer LNCaP cells were cultured in RPMI 1640 medium supplemented with 10% fetal calf serum, 100 units/ml of penicillin, and 100 μg/ml streptomycin. Human immortalized, non-transformed NK cells (YT cell line) (38) were cultured in RPMI 1640 supplemented with 1 mM MEM sodium pyruvate solution, 0.1 mM MEM non-essential amino acids solution, 10% fetal calf serum. 100 units/ml penicillin, and 100 μg/ml streptomycin. Normal (WI-38) and simian virus 40 (SV40)-transformed (VA-13) human fibroblasts were grown in Dulbecco's modified Eagle's medium supplemented with 10% fetal calf serum, 100 units/ml of penicillin and 100 μg/ml of streptomycin. All cells were maintained at 37° C. in a humidified incubator with an atmosphere of 5% CO2. A whole cell extract was prepared in accordance with An et al. (An, B. et al. Cell Death Differ, 1998, 5:1062-75). Briefly, cells were harvested, washed with PBS twice, and homogenized in a lysis buffer [50 mM Tris-HCl (pH 8.0), 5 mM EDTA, 150 mM NaCl, 0.5% NP-40, 0.5 mM phenylmethylsulfonyl fluoride, and 0.5 mM dithiothreitol] for 30 min at 4° C. […] The ratio of p27 or IκB-α to the corresponding actin was determined by scanning intensities of the protein bands. […]

With `O=C(OC1Cc2c(O)cc(O)cc2OC1c1cc(O)c(O)c(O)c1)c1cc(O)c(O)c(O)c1` (single isomer, unassigned; (+)) [(+)-EGCG], the caspase-3 activation in the experiment on LNCaP cells (24 hours) is listed as 2.5 fold; in the experiment with LNCaP cells (48 hours), 3.5 fold; with LNCaP cells (72 hours), 6 fold. For the same compound, the caspase-3 induction in the experiment with DU145 cells is listed as roughly 2 fold.

Regarding `O=C(O[C@@H]1Cc2c(O)cc(O)cc2O[C@@H]1c1cc(O)c(O)c(O)c1)c1cc(O)c(O)c(O)c1` [(−)-EGCG, (−)-epigallocatechin-3-gallate, reference compound], the “inhibition of chymotrypsin-like activity” value is 81% in experiment [1] (10 μM, 1 h pre-incubation, overnight dialysis); 85% in experiment [1] (10 μM, absence of dialysis); “no inhibition was observed” in experiment [1] (compound dialyzed overnight before addition to proteasome (EGCG pre)).

On to `O=C(N[C@@H]1Cc2c(O)cc(O)cc2O[C@@H]1c1cc(O)c(O)c(O)c1)c1cc(O)c(O)c(O)c1` [(−)-EGCG-amide, (−)-[2R,3R]-N-[5,7-Dihydroxy-2-(3,4,5-trihydroxyphenyl)-chroman-3-yl]-3,4,5-trihydroxybenzamide], for which the p27 levels entry with WI-38 cells was “slightly increased”.
